Data taken from article PMC8605241, “Coevolution of the bacterial pheromone ComS and sensor ComR fine-tunes natural transformation in streptococci” (The Journal of Biological Chemistry, 2021).
Residues, ends and D or L forms follow the SMILES beside them.

What was measured:
ComRSve WT = assay: PcomS-luxAB luciferase reporter assay, S. thermophilus strain with ComRSth replaced by ComRSve; type: cell-based, Streptococcus vestibularis; conditions: reporter strain carrying ComRSve; for decrease of activation compared with wild-type XIPSve: synthetic peptide
Protocol: (§1) Luciferase assays were performed as previously described ([19]). Overnight precultures were diluted to a final OD600 of 0.05 and culture samples incubated in a sterile covered white microplate with a transparent bottom (Greiner). Growth and luciferase activity (expressed in relative light units [RLUs]) of the cultures were monitored after addition or in absence of synthetic XIP peptide at 10 min intervals during at least 8 h in a multiwell plate reader (Hidex Sense, Hidex). When peptides were titrated, 0, 0.78, 1.56, 3.12, 6.25, 12.5, 25, 50, 100, and 1000 nM were added to the medium.

ComRSth WT = ComRSth WT (Streptococcus thermophilus, UniProt A0A1L1QK15); type: cell-based; conditions: for effect of XIP-5 substitution on activation (titration of synthetic XIPSth variants): compared with XIPSth WT (A5), PcomS-luxAB; for EC50: read-out: EC50 of PcomS activity (maximum specific luciferase activity), synthetic 8-aa peptide added to S. thermophilus ΔcomS reporter strain (PcomS-luxAB), Hill fit, mean ± SD of at least three independent replicates, SD
Protocol: as §1

ComRSth [1] = target: T1, ComRSth (Streptococcus thermophilus, UniProt A0A1L1QK15); assay: biochemical; conditions: SD
Protocol: In the case of competition assays, a fixed concentration of ComR (250 nM) and FITC N-labeled XIP peptide (30 nM) were incubated with twofold serial dilutions of unlabeled XIP variant (initial concentration of 5 μM). Plots were fitted by using GraphPad Prisma software to calculate IC50 values (half-maximal inhibitory peptide concentration).

[2] = target: FITC N-labeled XIP-A5M peptide (9 aa) (Streptococcus thermophilus); assay: fluorescence polarisation; 30 nM FITC N-labeled 9-aa XIP peptide, threefold serial dilutions of purified ComR from 1 uM, 10 min at 30 °C, 96-well plates; EC50 by Hill fit
ComR-F171A = assay: PcomS-luxAB luciferase reporter assay, ComR-F171A strain; type: cell-based, Streptococcus thermophilus; conditions: substitution added to XIP-L1A; ComR-F171A mutant strain
Protocol: Luciferase assays were performed as previously described ([19]). Overnight precultures were diluted to a final OD600 of 0.05 and culture samples incubated in a sterile covered white microplate with a transparent bottom (Greiner). Growth and luciferase activity (expressed in relative light units [RLUs]) of the cultures were monitored after addition or in absence of synthetic XIP peptide at 10 min intervals during at least 8 h in a multiwell plate reader (Hidex Sense, Hidex). When peptides were titrated, 0, 0.78, 1.56, 3.12, 6.25, 12.5, 25, 50, 100, and 1000 nM were added to the medium. In order to calculate EC50 values (peptide concentration for a half maximum response), maximum luciferase activity values were fitted to Hill equation: L=Lmax×[XIP]^n/(EC50)^n+[XIP]^n where L is the luciferase activity, [XIP] is the XIP concentration, and n is the Hill coefficient. Curves were fitted with the GraphPad Prism software v.9.0.1 (GraphPad Software, Inc).

ComRSth [3] = target: T1, ComRSth; assay: Single-molecule force spectroscopy (AFM); type: binding; conditions: polyG-linked peptide grafted on AFM tip, ComRSth on gold-coated coverslip
Protocol: Gold-coated glass coverslips and cantilevers (OMCL-TR4, Olympus Ltd; nominal spring constant ∼0.02 N m^−1) were immersed overnight in an ethanol solution containing 1 mM of 10% 16- […]/90% 1-mercapto-1-undecanol (Sigma), rinsed with ethanol and dried with N2. Substrates and cantilevers were then immersed for 30 min into a solution containing 10 mg ml^−1 N-hydroxysuccinimide (NHS) and 25 mg ml^−1 1-ethyl-3-(3-dimethylaminopropyl)-carbodiimide (EDC) (Sigma), rinsed with Ultrapure water (ELGA LabWater), incubated with 0.1 mg ml^−1 ComR or polyG-XIPSth, polyG-XIP-A5M, or polyG-XIPSve peptides for 1 h, rinsed further with PBS buffer, and then immediately used without dewetting.
For experiments of single-molecule force spectroscopy, ComR-functionalized surfaces and functionalized cantilevers with polyG-peptides were prepared as described above. Measurements were performed at room temperature in PBS with a Force Robot 300 AFM (JPK Instruments). Multiple (32 × 32) force–distance curves were recorded on areas of 500 by 500 nm^2 with an applied force of 250 pN, a constant approach, and retraction speed of 1000 nm s^−1. […] The spring constants of the cantilevers were measured by the thermal noise method ([50]). Data were analyzed with the data processing software from JPK Instruments.

[4] = target: ComRSth-StreptagII protein (Streptococcus thermophilus ComR) (Streptococcus thermophilus)
[5] = target: T2, ComRSth-StreptagII protein (Streptococcus thermophilus ComR) (Streptococcus thermophilus); assay: FP; competition with FITC-XIP-A5M
T2 chain: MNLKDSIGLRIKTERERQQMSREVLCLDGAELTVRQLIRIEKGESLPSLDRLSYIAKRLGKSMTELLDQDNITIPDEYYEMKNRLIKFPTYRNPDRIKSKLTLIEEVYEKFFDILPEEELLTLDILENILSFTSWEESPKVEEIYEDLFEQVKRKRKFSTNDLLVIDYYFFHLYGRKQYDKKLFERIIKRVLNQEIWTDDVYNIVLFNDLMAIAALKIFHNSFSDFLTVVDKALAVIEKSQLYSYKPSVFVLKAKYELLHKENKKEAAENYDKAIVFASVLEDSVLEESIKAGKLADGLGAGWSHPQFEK

VPFFAIYY [XIPSve-M5A]
decrease of activation compared with wild-type XIPSve (ComRSve WT): ~40 fold

LPYFIGCL [XIP-A5I]
effect of XIP-5 substitution on activation (titration of synthetic XIPSth variants) (ComRSth WT; ΔcomS reporter strain): improved transcriptional activation but at a lower level than A5M

PYFAGCL [XIPSth-ΔL1]
decrease of activity (fold less active) (ComRSth WT; synthetic 7-aa peptide, ComRSth WT reporter strain): ~90 fold

CC(C)C[C@H](NC(=O)[C@H](CS)NC(=O)CNC(=O)[C@H](C)NC(=O)[C@H](Cc1ccccc1)NC(=O)[C@H](Cc1ccc(O)cc1)NC(=O)[C@@H]1CCCN1C(=O)[C@@H](N)CC(C)C)C(=O)O [XIPSth, reference compound] (H-LPYFAGCL-OH)
EC50 (ComRSth WT): 0.0044 ± 0.00112 µM | IC50 (ComRSth [1]): 0.254 ± 0.0497 µM

LPYFTGCL [XIP-A5T]
effect of XIP-5 substitution on activation (titration of synthetic XIPSth variants) (ComRSth WT; ΔcomS reporter strain): neutral

ComRSth-StreptagII protein (Streptococcus thermophilus ComR) (natural protein)
fold lower EC50 than FITC-XIPSth [2]: 2 fold

APYFMGCL [XIPSth-L1A-A5M]
increased activation (fold change in EC50) with XIP-L1A (A1–A5) as reference (ComRSth WT; substitution added to XIP-L1A, ComRSth WT reporter strain): 10.4 fold | increased activation (fold change in EC50) with XIP-L1A as reference (ComR-F171A): 1.3 fold

PFFMIYY [XIPSve-ΔV1, 7-aa XIPSve variant PFFMIYY]
activation of ComRSve (in words) (ComRSve WT; synthetic 7-aa peptide): completely abolished

CSCC[C@H](NC(=O)[C@H](Cc1ccccc1)NC(=O)[C@H](Cc1ccc(O)cc1)NC(=O)[C@@H]1CCCN1C(=O)[C@@H](N)C(C)C)C(=O)NCC(=O)N[C@@H](CS)C(=O)N[C@@H](CC(C)C)C(=O)O [XIP-L1V-A5M] (H-VPYFMGCL-OH)
EC50 (ComRSth WT): 0.00136 ± 0.00033 µM | EC50 compared with wild-type XIPSth (ComRSth WT; synthetic peptide, ΔcomS reporter strain, PcomS as proxy): approximately fourfold lower

VPFFMIYY [XIPSve]
binding frequency / binding probability (ComRSth [3]): ~2% | median binding (adhesion) force (ComRSth [3]; PBS, room temperature, about 1000 curves per surface): 58 pN

XIP-L1A-A5M (synthetic octapeptide)
P (comS)-luxAB luciferase reporter in S. thermophilus cells producing ComRSth WT; fold change in EC50 against the reference XIP-L1A (substitution A5M) [4]: 10.4 fold

APFFMIYY [XIPSve-V1A]
decrease of activation compared with wild-type XIPSve (ComRSve WT): ~130 fold

LPYFAGCL [XIPSth (Streptococcus thermophilus XIP, synthetic octapeptide)]
IC50 [5]: 0.254 µM | P (comS)-luxAB luciferase reporter in S. thermophilus cells producing ComRSth WT; fold change in EC50 against the reference XIP-L1A (substitution A1L) [4]: 2.7 fold

PYFAGCL [XIPSth-ΔL1 (7 aa)]
P (comS)-luxAB luciferase reporter in S. thermophilus cells producing ComRSth WT; activity against XIPSth WT (fold less active) [4]: 90
